USRE38102E1, “Use of a pyridazinone derivative” (Orion Corporation, priority 1998, dated 2003)

Assays:
[1] = tested on: guinea-pig papillary muscle; experiment: Positive inotropic effect in paced cardiac muscle; format: cell-based; details: Cavia porcellus; right ventricular papillary muscle paced at 1 Hz, 37° C.
Experimental: Positive Inotropic Effect in Paced Cardiac Muscle
Four weeks old guinea-pigs weighing about 350 g were used. In the experiments the right ventricular papillary muscle of the heart was mounted for measurement of isometric tension in organ bath containing modified Tyrode solution (37° C.) bubbled with 95% O2, 5% CO2. The composition of the modified Tyrode solution was (mM): NaCl 135; MgCl2.6H2O 1; KCl 5; CaCl2.2H2O 2; NaHCO3 15; Na2HPO4.2H2O 1; glucose 10; pH 7.3-7.4. The volume of the open horizontal chamber was 1 ml and flow rate of the superfusion solution running through the chamber was 5 ml/min. Papillary muscle (<1 mm in diameter) was stretched horizontally between force-displacement transducer (FT 0.3 and a needle fixed to the bottom of the chamber. An initial stretching tension of 300 mg was applied to the muscle which was electrically stimulated (Stimulator model SEC 48 F, Grass Instruments) via platinum field electrodes at 1 Hz with rectangular pulses (duration 4 ms). The stimulation occurred at twice threshold voltage in order to achieve simultaneous activation of all myocytes in the […]. A force-displacement transducer was connected to a polygraph D.C. driver amplifier (model 7 DA, Grass Instruments) and a programmable scanner (model SI 5010, Tetronix). […]

[2] = tested on: skinned cardiac fiber (left ventricular papillary muscle); experiment: Calcium sensitizing effect in skinned cardiac fiber; format: cell-based, guinea-pig; details: pCa 5.6; concentration not given
Source text: Calcium Sensitizing Effect in Skinned Cardiac Fiber
Left ventricular papillary muscle of the guinea-pig was dissected and rinsed in ice-cold Tyrode solution. Thereafter the papillary muscle was immersed into a solution containing (mM): Potassium acetate 74.7, EGTA 10, MgSO4 5.4, ATP-Na2 4, DTE 1, MOPS 20, pH 7.0 (by 1 M KOH). Subsequently, the papillary muscle was sonicated at 10 Watt for 60 sec in this ice-cold solution. The distance between ultrasound probe and the papillary muscle was 10 mm. The fibers (<200 μm in diameter) were dissected from surface of sonicated papillary muscles. Moreover, the sonicated and dissected fibers were kept for 30 min in a “skinning” solution (ice-cold) containing saponin (250 μg/ml) in addition to the other constituents. Continuous magnetic stirring was used during this treatment.
The fibers which were further dissected (<100 μm in diameter) were then mounted horizontally with a glue (cellulose acetate in acetone) between a steel-rod extension of isometric force transducer (AME-801 strain gauge, Horten Electronics, Norway) and a glass rod attached to a micro-manipulator. The force transducer was connected to an amplifier. The fibers were kept in the “relaxing” solution containing (mM): imidazole 30, ATP-Na2 10, NaN3 5, EGTA 5, MgCl2 12.5, and 350 U creatinkinase. The temperature of the solution was 22° C. and the pH was set to 6.7 by 1 M KOH. […]

SMILES | EC50 [1] [nM] | Calcium sensitizing effect in skinned fiber: Change in force % of control [2]
CC(=O)Nc1ccc(C2=NNC(=O)C[C@H]2C)cc1 [Compound A, (R)-N-[4-(1,4,5,6-tetrahydro-4-methyl-6-oxo-3-pyridazinyl)phenyl]acetamide] | 100 | –
Cc1[nH]c(=O)c(C#N)cc1-c1ccncc1 [Milrinone, milrinone] | 2000 | ineffective
